Source: patent publication US11332485B2, “Penicillin-binding protein inhibitors” (priority 2017, dated 2022)
Read-outs that look alike come from different tables or passages of the source.

Legend:
[1] = test system: hyper-permeable E. coli 901C; test: Broth microdilution MIC assay; type: cell-based; settings: Escherichia coli, read-out: E. coli 901C MIC
Procedure: (§1) To determine the ability of test compounds to potentiate the inhibition of the growth of bacterial strains, classic cell based broth microdilution MIC assays were employed. MIC assays are performed according to CLSI methods except where otherwise noted (CLSI, 2011 and CLSI, 2009). The reference strain S. aureus ATCC 29213 and the hyper-permeable E. coli 901C were used to determine the ability of the PBP compounds to inhibit bacterial growth. Briefly, cryo-preserved bacterial cultures of clinical strains are streaked for isolation on appropriate agar medium, in this case Mueller Hinton II agar. Following incubation to allow formation of colonies these plates are sealed with parafilm and stored refrigerated for up to two weeks. For preparation of assay inocula and to ensure low variability, at least 5 colonies are picked from the agar plates with an inoculating loop and aseptically transferred to a culture tube containing 3 mL of Mueller-Hinton Broth (supplemented with divalent cations to required levels based on Manufacturers' certification). The broth culture is grown for 3-5 hours at 37° C. with shaking at 200 rpm. Meanwhile, 2-fold serial dilutions of test compounds are conducted in a 96 well plate with a final volume of 75 μL per well at 2-fold the final desired concentration. After the dilution plates are set up the growing cultures are then diluted in a cuvette containing MH II broth and the optical density is measured at 600 nm. Inocula are diluted such that 75 μL of this culture in Mueller-Hinton Broth results in a starting bacterial concentration of 5×10^5 CFU/mL when added to the dilution plates. The plates are incubated 16-20 hours at 37° C. The MIC is read visually as the lowest concentration well with no bacterial growth.

S. aureus ATCC 29213 = test: Broth microdilution MIC assay; type: cell-based; settings: Staphylococcus aureus
Procedure: as §1

[2] = test system: E. coli DH5α/pLBII-CTX-M15; test: Broth microdilution MIC assay, engineered strain producing CTX-M15; type: cell-based, Escherichia coli; settings: for MIC: Escherichia coli, read-out: E. coli DH5α/pLBII-CTX-M15 Microbiological Activity (MIC); for MIC in the CTX-M15 producer compared with the parent strain with the empty pLBII plasmid: comparison in words
Procedure: as §1
(§2) To determine if test compounds were affected by CTX-M15, the most abundant extended spectrum β-lactamase in clinical settings worldwide, the inhibition of the growth of an engineered strain of Escherichia coli harboring CTX-M15 was tested. This strain was constructed by cloning the gene encoding CTX-M15 into the NdeI and BamHI restriction endonuclease sites of plasmid pLBII, placing the gene(s) under the control of the Lac promoter. The constructed expression plasmid for CTX-M15 was used to transform competent E. coli DH5a cells to make the engineered strain, including an empty pLBII vector control strain. The classic cell based broth microdilution MIC assay was employed as described above with the addition of control antibiotics, known to be degraded by β-lactamases (Ceftazidime, piperacillin and piperacillin+tazobactam).

E. coli DH5α/pLBII = test: Broth microdilution MIC assay, empty vector control strain; type: cell-based; settings: Escherichia coli, read-out: E. coli DH5α/pLBII Microbiological Activity (MIC)
Procedure: as §1, §2

[3] = ATCC29213, broth microdilution, 16-20 hours at 37° C., read-out: S. aureus 29213 MIC

Structure (SMILES) | MIC [1] [µg/mL] | MIC (S. aureus ATCC 29213; [3]) [µg/mL] | MIC [2] [µg/mL] | MIC (E. coli DH5α/pLBII) [µg/mL] | MIC (S. aureus ATCC 29213; ATCC29213, read-out: S. aureus 29213 MIC) [µg/mL] | MIC in the CTX-M15 producer compared with the parent strain with the empty pLBII plasmid [2]
COC(=O)C(=O)NC(C(=O)N[C@H]1Cc2cccc(C(=O)O)c2OB1O)c1csc(N)n1 (stereo partly drawn) [Example 28, (3R)-3-(2-(2-aminothiazol-4-yl)-2-(2-methoxy-2-oxoacetamido)acetamido)-2-hydroxy-3,4-dihydro-2H-benzo[e][1,2]oxaborinine-8-carboxylic acid] | < 64 | > 128 | 32 to 64 | 32 to 64 |  | 
CCNC(=O)NC(C(=O)N[C@H]1Cc2cccc(C(=O)O)c2OB1O)c1csc(N)n1 (stereo partly drawn) [Example 25, (3R)-3-(2-(2-aminothiazol-4-yl)-2-(3-ethylureido)acetamido)-2-hydroxy-3,4-dihydro-2H-benzo[e][1,2]oxaborinine-8-carboxylic acid] | < 64 | > 128 | 32 to 64 | 32 to 64 |  | 
N[C@@H](C(=O)N[C@H]1Cc2cccc(C(=O)O)c2OB1O)c1ccccc1 [Example 2, (R)-3-((R)-2-amino-2-phenylacetamido)-2-hydroxy-3,4-dihydro-2H-benzo[e][1,2]oxaborinine-8-carboxylic acid] | > 128 | > 128 | > 512 | > 512 |  | 
Nc1nc([C@@H](N)C(=O)N[C@H]2Cc3cccc(C(=O)O)c3OB2O)cs1 [Example 8, (R)-3-((R)-2-amino-2-(2-aminothiazol-4-yl)acetamido)-2-hydroxy-3,4-dihydro-2H-benzo[e][1,2]oxaborinine-8-carboxylic acid] | > 128 | > 128 | > 512 | > 512 |  | 
Nc1nc(C(NC(=O)N2CCN(CCCF)C(=O)C2=O)C(=O)N[C@H]2Cc3cccc(C(=O)O)c3OB2O)cs1 (stereo partly drawn) [Example 54, (3R)-3-(2-(2-aminothiazol-4-yl)-2-(4-(3-fluoropropyl)-2,3-dioxopiperazine-1-carboxamido)acetamido)-2-hydroxy-3,4-dihydro-2H-benzo[e][1,2]oxaborinine-8-carboxylic acid] | < 64 | 64 to 128 | 8 to 16 | 8 to 16 |  | 
Cc1cc(C)n2c1C=C1C=CC(CCC(=O)NCCON=C(C(=O)N[C@H]3Cc4cccc(C(=O)O)c4OB3O)c3csc(N)n3)=[N+]1[B-]2(F)F [Example 13, (R)-3-(2-(2-aminothiazol-4-yl)-2-((2-(3-(5,5-difluoro-7,9-dimethyl-5H-4λ^4,5λ^4-dipyrrolo[1,2-c:2′,1′-f][1,3,2]diazaborinin-3-yl)propanamido)ethoxy)imino)acetamido)-2-hydroxy-3,4-dihydro-2H-benzo[e][1,2]oxaborinine-8-carboxylic acid] | > 128 |  | > 512 | > 512 | > 128 | 
Nc1nc(CC(=O)NC(C(=O)N[C@H]2Cc3cccc(C(=O)O)c3OB2O)c2csc(N)n2)cs1 (stereo partly drawn) [Example 22, (3R)-3-(2-(2-aminothiazol-4-yl)-2-(2-(2-aminothiazol-4-yl)acetamido)acetamido)-2-hydroxy-3,4-dihydro-2H-benzo[e][1,2]oxaborinine-8-carboxylic acid] | < 64 | 64 to 128 | 128 to 256 | 128 to 256 |  | 
CCN1CCN(C(=O)N[C@@H](C(=O)N[C@H]2Cc3cccc(C(=O)O)c3OB2O)[C@H](O)CO)C(=O)C1=O [Example 74, (R)-3-((2R,3S)-2-(4-ethyl-2,3-dioxopiperazine-1-carboxamido)-3,4-dihydroxybutanamido)-2-hydroxy-3,4-dihydro-2H-benzo[e][1,2]oxaborinine-8-carboxylic acid] | < 64 | > 128 | 32 to 64 | 32 to 64 |  | 
N[C@H](C(=O)N[C@H]1Cc2cccc(C(=O)O)c2OB1O)c1ccc(O)cc1 [Example 7, (R)-3-((S)-2-amino-2-(4-hydroxyphenyl)acetamido)-2-hydroxy-3,4-dihydro-2H-benzo[e][1,2]oxaborinine-8-carboxylic acid] | > 128 | 64 to 128 | 128 to 256 | 128 to 256 |  | 
CCC(O)[C@H](NC(=O)N1CCN(CC)C(=O)C1=O)C(=O)N[C@H]1Cc2cccc(C(=O)O)c2OB1O (single isomer, unassigned) [Example 83] | 64 to 128 | > 128 | 128 to 256 | 128 to 256 |  | 
Nc1nc(C(NC(=O)N2CCN(CC(F)F)C(=O)C2=O)C(=O)N[C@H]2Cc3cccc(C(=O)O)c3OB2O)cs1 (stereo partly drawn) [Example 69, (3R)-3-(2-(2-aminothiazol-4-yl)-2-(4-(2,2-difluoroethyl)-2,3-dioxopiperazine-1-carboxamido)acetamido)-2-hydroxy-3,4-dihydro-2H-benzo[e][1,2]oxaborinine-8-carboxylic acid] | < 64 | 64 to 128 | 8 to 16 | 8 to 16 |  | 
Nc1nc(C(NC(=O)Nc2cccnc2)C(=O)N[C@H]2Cc3cccc(C(=O)O)c3OB2O)cs1 (stereo partly drawn) [Example 30, (3R)-3-(2-(2-aminothiazol-4-yl)-2-(3-(pyridin-3-yl)ureido)acetamido)-2-hydroxy-3,4-dihydro-2H-benzo[e][1,2]oxaborinine-8-carboxylic acid] | 64 to 128 | 64 to 128 | 128 to 256 | 128 to 256 |  | 
N[C@@H](C(=O)N[C@H]1Cc2cccc(C(=O)O)c2OB1O)c1ccc(O)cc1 [Example 6, (R)-3-((R)-2-amino-2-(4-hydroxyphenyl)acetamido)-2-hydroxy-3,4-dihydro-2H-benzo[e][1,2]oxaborinine-8-carboxylic acid] | > 128 | > 128 | > 512 | > 512 |  | 
CN(C)C(=O)NC(C(=O)N[C@H]1Cc2cccc(C(=O)O)c2OB1O)c1csc(N)n1 (stereo partly drawn) [Example 14, (3R)-3-(2-(2-aminothiazol-4-yl)-2-(3,3-dimethylureido)acetamido)-2-hydroxy-3,4-dihydro-2H-benzo[e][1,2]oxaborinine-8-carboxylic acid] | < 64 | > 128 | 128 to 256 | 128 to 256 |  | 
Nc1nc(C(NC(=O)c2nccs2)C(=O)N[C@H]2Cc3cccc(C(=O)O)c3OB2O)cs1 (stereo partly drawn) [Example 15, (3R)-3-(2-(2-aminothiazol-4-yl)-2-(thiazole-2-carboxamido)acetamido)-2-hydroxy-3,4-dihydro-2H-benzo[e][1,2]oxaborinine-8-carboxylic acid] | < 64 | < 64 | 128 to 256 | 128 to 256 |  | 
CN(C)S(=O)(=O)NC(C(=O)N[C@H]1Cc2cccc(C(=O)O)c2OB1O)c1csc(N)n1 (stereo partly drawn) [Example 23, (3R)-3-(2-(2-aminothiazol-4-yl)-2-((N,N-dimethylsulfamoyl)amino)acetamido)-2-hydroxy-3,4-dihydro-2H-benzo[e][1,2]oxaborinine-8-carboxylic acid] | < 64 | > 128 | 128 to 256 | 128 to 256 |  | 
CCN1CCN(C(=O)N[C@@H](C(=O)N[C@@H]2C(=O)N3[C@@H]2SC(C)(C)[C@@H]3C(=O)O)c2ccccc2)C(=O)C1=O [piperacillin, reference compound] |  |  | 128 to 256 | < 1 |  | weaker MICs
CCN1C(=O)CN(C(=O)NC(C(=O)N[C@H]2Cc3cccc(C(=O)O)c3OB2O)c2csc(N)n2)CC1=O (stereo partly drawn) [Example 64, (3R)-3-(2-(2-aminothiazol-4-yl)-2-(4-ethyl-3,5-dioxopiperazine-1-carboxamido)acetamido)-2-hydroxy-3,4-dihydro-2H-benzo[e][1,2]oxaborinine-8-carboxylic acid] | < 64 | > 128 | 128 to 256 | 128 to 256 |  | 
CC(C)(O/N=C(\C(=O)N[C@@H]1C(=O)N2C(C(=O)[O-])=C(C[n+]3ccccc3)CS[C@H]12)c1csc(N)n1)C(=O)O [ceftazidime, reference compound] |  |  | 8 to 16 | < 1 |  | weaker MICs
CCN1CCN(C(=O)NC(C(=O)N[C@H]2Cc3cccc(C(=O)O)c3OB2O)C(C)c2ccccc2)C(=O)C1=O (stereo partly drawn) [Example 84, (3R)-3-(2-(4-ethyl-2,3-dioxopiperazine-1-carboxamido)-3-phenylbutanamido)-2-hydroxy-3,4-dihydro-2H-benzo[e][1,2]oxaborinine-8-carboxylic acid] | < 64 | 64 to 128 | 128 to 256 |  |  | 
